Measurements as given in patent US11229618B2 (Amarin Pharmaceuticals Ireland Limited, priority 2012, dated 2022).

Columns and labels:
[1] = AAMI 6-week study: essential fatty acid parameters in plasma (gas chromatography); type: in vivo, human; conditions: for AA Plasma Mean change from Baseline / DHA Plasma Mean change from Baseline / AA Plasma 1 or 2 g versus 4 g LS Mean / DHA Plasma 1 or 2 g versus 4 g LS Mean: AAMI; for AA Plasma Mean change from Baseline / DHA Plasma Mean change from Baseline: mean (SD); for DGLA 1 or 2 g versus 4 g, LS Mean / DPAn-3 1 or 2 g versus 4 g, LS Mean / EPA/AA 1 or 2 g versus 4 g, LS Mean / DGLA Mean change from Baseline, Mean (SD) / DPAn-3 Mean change from Baseline, Mean (SD) / EPA/AA Mean change from Baseline, Mean (SD) / DGLA Baseline Mean (SD) / DPAn-3 Baseline Mean (SD) / EPA/AA Baseline Mean (SD): plasma; for DPAn-3 1 or 2 g versus 4 g, LS Mean / EPA/AA 1 or 2 g versus 4 g, LS Mean: p-value <0.001
Protocol: A single-center, 6-week, double-blind, randomizes, parallel-group, placebo-controlled, dose-ranging pilot study was performed to evaluate the efficacy, tolerability, and safety of >96% ethyl-EPA in subjects with subjective and objective memory impairment according to generally accepted criteria for Age-Associated Memory Impairment (“AAMI”). The primary objective of the study was to determine the effect of >96% ethyl-EPA 1 g, 2 g, and 4 g daily, compared to placebo, on cognitive performance in subjects with AAMI.
Ninety-four subjects were randomized into one of six groups: 1 g E-EPA daily (n=23), 2 g E-EPA daily (n=24), 4 g E-EPA daily (n=24), 1 g placebo daily (n=7), 2 g placebo daily (n=8), and 4 g placebo daily (n=8). E-EPA was provided as 500 mg soft gel capsules containing>96% E-EPA and 0.2% dl-α-tocopherol as an antioxidant. Placebo capsules contained 467 mg of liquid paraffin and 0.2% dl-α-tocopherol. Ninety-one subjects completed the study. Two subjects in the 2 g E-EPA group and one subject in the 2 g placebo group discontinued the study.
Blood samples (10 mL) were collected at Visit 1 (screening) and at Visits 4, 5 and 6. Analysis was performed by MSR Lipid Analysis, Scottish Crop Research Institute, Dundee, UK. The screening sample acted as baseline for the EFA measurements. Lipid was extracted from plasma, serum and RBC suspensions and converted into fatty acid methyl esters which were analyzed by gas chromatography to give fatty acid profiles as micrograms fatty acid per gram of sample (μgFA/g) and normalized area percent.
RBC and plasma EFA data were collected at baseline, Day 14, 28 and 42 and summarized by visit for each treatment group. Change from baseline and percent change from baseline were also summarized. ANCOVA comparison of ethyl-EPA dose groups and ethyl-EPA versus placebo was performed.

[2] = AAMI 6-week study: safety and tolerability; type: in vivo, human
Protocol: All randomized subjects that received at least 1 dose of study medication were included in the Safety Population.
Safety evaluations were based on the safety population. Safety and tolerability were assessed in terms of AEs, vital signs, 12-lead ECG, clinical laboratory data, medical history, and study drug compliance. Safety and tolerability data were presented by treatment group.

## CC/C=C\C/C=C\C/C=C\C/C=C\C/C=C\CCCC(=O)OCC [IPE, all-cis eicosa-5,8,11,14,17-pentaenoic acid ethyl ester]
[1]; 1 g daily, Day 14
  AA Plasma Mean change from Baseline: −9.7 (22.20) μg/g
  DHA Plasma Mean change from Baseline: −6.4 (13.30) μg/g
[1]; 1 g daily, Day 28
  AA Plasma Mean change from Baseline: −11.3 (28.13) μg/g
  DHA Plasma Mean change from Baseline: −6.6 (15.53) μg/g
[1]; 1 g daily, Day 42
  AA Plasma Mean change from Baseline: −8.7 (31.35) μg/g
  DHA Plasma Mean change from Baseline: −5.4 (18.17) μg/g
[1]; 1 g versus 4 g
  AA Plasma 1 or 2 g versus 4 g LS Mean: 4.2 µg/g
  DHA Plasma 1 or 2 g versus 4 g LS Mean: -0.8 µg/g
[1]; 2 g daily, Day 14
  AA Plasma Mean change from Baseline: −13.9 (22.13) μg/g
  DHA Plasma Mean change from Baseline: −5.4 (14.29) μg/g
[1]; 2 g daily, Day 28
  AA Plasma Mean change from Baseline: 21.6 (28.32) μg/g
  DHA Plasma Mean change from Baseline: −8.1 (15.82) μg/g
[1]; 2 g daily, Day 42
  AA Plasma Mean change from Baseline: −27.3 (26.76) μg/g
  DHA Plasma Mean change from Baseline: −6.0 (16.69) μg/g
[1]; 2 g versus 4 g
  AA Plasma 1 or 2 g versus 4 g LS Mean: 15.6 µg/g
  DHA Plasma 1 or 2 g versus 4 g LS Mean: 1.5 µg/g
[1]; 4 g daily, Day 14
  AA Plasma Mean change from Baseline: −27.2 (28.89) μg/g
  DHA Plasma Mean change from Baseline: −10.3 (13.35) μg/g
[1]; 4 g daily, Day 28
  AA Plasma Mean change from Baseline: −43.7 (32.24) μg/g
  DHA Plasma Mean change from Baseline: −13.5 (14.10) μg/g
[1]; 4 g daily, Day 42
  AA Plasma Mean change from Baseline: −48.3 (22.20) μg/g
  DHA Plasma Mean change from Baseline: −13.8 (15.31) μg/g
[1]; Ethyl-EPA 1 g versus 4 g, p-value 0.028
  DGLA 1 or 2 g versus 4 g, LS Mean: 3.7 µg/g
[1]; Ethyl-EPA 1 g versus 4 g
  DPAn-3 1 or 2 g versus 4 g, LS Mean: -15.1 µg/g
  EPA/AA 1 or 2 g versus 4 g, LS Mean: −0.66
[1]; Ethyl-EPA 1 g, Day 14
  DGLA Mean change from Baseline, Mean (SD): −10.4 (10.90) μg/g
  DPAn-3 Mean change from Baseline, Mean (SD): 7.5 (5.11) μg/g
  EPA/AA Mean change from Baseline, Mean (SD): 0.3 (0.4)
[1]; Ethyl-EPA 1 g, Day 28
  DGLA Mean change from Baseline, Mean (SD): −10.6 (10.23) μg/g
  DPAn-3 Mean change from Baseline, Mean (SD): 8.9 (5.62) μg/g
  EPA/AA Mean change from Baseline, Mean (SD): 0.3 (0.20)
[1]; Ethyl-EPA 1 g, Day 42
  DGLA Mean change from Baseline, Mean (SD): −9.4 (9.41) μg/g
  DPAn-3 Mean change from Baseline, Mean (SD): 11.3 (6.61) μg/g
  EPA/AA Mean change from Baseline, Mean (SD): 0.3 (0.24)
[1]; Ethyl-EPA 1 g
  DGLA Baseline Mean (SD): 51.2 (15.01) μg/g
  DPAn-3 Baseline Mean (SD): 21.1 (6.62) μg/g
  EPA/AA Baseline Mean (SD): 0.2 (0.14)
[1]; Ethyl-EPA 2 g versus 4 g, p-value 0.143
  DGLA 1 or 2 g versus 4 g, LS Mean: 2.5 µg/g
[1]; Ethyl-EPA 2 g versus 4 g
  DPAn-3 1 or 2 g versus 4 g, LS Mean: -9.5 µg/g
  EPA/AA 1 or 2 g versus 4 g, LS Mean: −0.41
[1]; Ethyl-EPA 2 g, Day 14
  DGLA Mean change from Baseline, Mean (SD): −14.1 (6.88) μg/g
  DPAn-3 Mean change from Baseline, Mean (SD): 17.4 (7.49) μg/g
  EPA/AA Mean change from Baseline, Mean (SD): 0.6 (0.23)
[1]; Ethyl-EPA 2 g, Day 28
  DGLA Mean change from Baseline, Mean (SD): −16.2 (9.88) μg/g
  DPAn-3 Mean change from Baseline, Mean (SD): 19.4 (8.48) μg/g
  EPA/AA Mean change from Baseline, Mean (SD): 0.8 (0.35)
[1]; Ethyl-EPA 2 g, Day 42
  DPAn-3 Mean change from Baseline, Mean (SD): 19.3 (8.63) μg/g
  EPA/AA Mean change from Baseline, Mean (SD): 0.7 (0.29)
[1]; Ethyl-EPA 2 g
  DGLA Baseline Mean (SD): 53.5 (14.12) μg/g
  DPAn-3 Baseline Mean (SD): 19.7 (4.50) μg/g
  EPA/AA Baseline Mean (SD): 0.2 (0.12)
[1]; Ethyl-EPA 4 g, Day 14
  DGLA Mean change from Baseline, Mean (SD): −22.9 (9.00) μg/g
  DPAn-3 Mean change from Baseline, Mean (SD): 24.5 (11.28) μg/g
  EPA/AA Mean change from Baseline, Mean (SD): 1.1 (0.28)
[1]; Ethyl-EPA 4 g, Day 28
  DGLA Mean change from Baseline, Mean (SD): −24.2 (10.73) μg/g
  DPAn-3 Mean change from Baseline, Mean (SD): 29.7 (13.23) μg/g
  EPA/AA Mean change from Baseline, Mean (SD): 1.3 (0.42)
[1]; Ethyl-EPA 4 g, Day 42
  DGLA Mean change from Baseline, Mean (SD): −22.5 (10.87) μg/g
  DPAn-3 Mean change from Baseline, Mean (SD): 32.0 (16.01) μg/g
  EPA/AA Mean change from Baseline, Mean (SD): 1.3 (0.45)
[1]; Ethyl-EPA 4 g
  DGLA Baseline Mean (SD): 57.1 (14.73) μg/g
  DPAn-3 Baseline Mean (SD): 21.7 (4.69) μg/g
  EPA/AA Baseline Mean (SD): 0.2 (0.07)
[2]
  TEAEs Definitely Related to the study drug: No TEAEs were Definitely Related
  deaths during the study: no deaths
[2]; 1 g
  nausea Probably Related to the study drug: One subject
[2]; 1 g cohort
  subjects with nausea Possibly Related to the study drug: two
[2]; 2 g cohort
  subjects with nausea Possibly Related to the study drug: one
[2]; 2 g treatment group
  serious adverse events: One SAE
  subjects discontinued due to TEAEs: 2 subjects
[2]; 4 g
  diarrhea Probably Related to the study drug: Another subject
[2]; 4 g cohort
  subjects with nausea Possibly Related to the study drug: two
[2]; all groups
  severity and relatedness of most TEAEs: mild in severity and unrelated to study drug
[2]; ethyl-EPA treatment groups (placebo groups 34 events)
  treatment emergent AEs (TEAEs) reported: 105 events
